Values quoted from earlier work in patent US11311591B2, “Use of copaifera oleoresin in pathologies of the prostate” (PIERRE FABRE MEDICAMENT, priority 2017, dated 2022).

Experiments:
5αR1 = biological target: T1, 5αR1 (Homo sapiens, UniProt P18405)
T1 sequence (P18405 1-259): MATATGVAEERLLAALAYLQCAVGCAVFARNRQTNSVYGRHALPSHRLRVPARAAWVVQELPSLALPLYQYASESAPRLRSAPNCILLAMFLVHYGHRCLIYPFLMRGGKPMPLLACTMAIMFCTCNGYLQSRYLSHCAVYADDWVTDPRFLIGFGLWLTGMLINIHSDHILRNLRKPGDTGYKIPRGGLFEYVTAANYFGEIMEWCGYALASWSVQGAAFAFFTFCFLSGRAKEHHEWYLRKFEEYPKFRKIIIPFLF

[1] = tested on: serum dihydrotestosterone
HSP27 = HSP27 (Homo sapiens, UniProt P04792); details: prior art, Phytochemistry Letters 10 (2014)
Sequence of HSP27 (P04792 whole entry): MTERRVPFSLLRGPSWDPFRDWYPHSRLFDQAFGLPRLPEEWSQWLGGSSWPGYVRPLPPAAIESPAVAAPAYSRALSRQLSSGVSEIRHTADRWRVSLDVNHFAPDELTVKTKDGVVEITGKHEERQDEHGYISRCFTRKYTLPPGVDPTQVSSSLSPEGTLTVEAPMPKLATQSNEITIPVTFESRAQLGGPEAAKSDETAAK

## CC(C)(C)NC(=O)[C@H]1CC[C@H]2[C@@H]3CC[C@H]4NC(=O)C=C[C@]4(C)[C@H]3CC[C@]12C [Finasteride]
5αR1
  IC50: 360 nM
[1]
  reduction of mean serum dihydrotestosterone levels: 70.8%

## C[C@]12C=CC(=O)N[C@@H]1CC[C@@H]1[C@@H]2CC[C@]2(C)[C@@H](C(=O)Nc3cc(C(F)(F)F)ccc3C(F)(F)F)CC[C@@H]12 [dutasteride]
5αR1
  IC50: 6 nM
[1]
  reduction of mean serum dihydrotestosterone levels: 94.7%

## CC1CCC2(C)C(C(=O)O)=CCCC2C1(C)CCc1ccoc1 (centres unmarked) [hardwickiic acid, Hardwickiic acid]
HSP27
  inhibition of HSP27 (in words): inhibits HSP27
